*1 amine or outer side, *2 acyl side, *3 side chain or, on linkers, in order; H or OH if unused. Where a SMILES comes first, the peptide text is derived from it. Bridges are numbered along the chain shown (N, C = ends). [ ]: non-standard residue; d: D form. The star is where a group is joined. X24 = O=C([C@H](Cc1ccc(C(F)(F)F)cc1)N(CCC(F)(F)F)[*:1])[*:2]; hPhe(3-Cl-4-CF3) = N[C@@H](CCc1ccc(C(F)(F)F)c(Cl)c1)C(=O)O; NMeGly(cPent) = CN[C@H](C(=O)O)C1CCCC1; NMeD = CN[C@@H](CC(=O)O)C(=O)O; NMeL = CN[C@@H](CC(C)C)C(=O)O; Morpholide = C1CN(*)CCO1; NMeA = CN[C@@H](C)C(=O)O; Ac5c = NC1(C(=O)O)CCCC1; Aze = O=C(O)[C@@H]1CCN1; Sar = CNCC(=O)O
Legend:
[1] = molecular target: GDP-bound NRAS wild-type protein (Homo sapiens, UniProt P01111); test: Binding to NRAS by surface plasmon resonance (SPR), Single Cycle Kinetics; conditions: SPR; for NRAS/KRAS (ratio of KD value with respect to NRAS to KD value with respect to KRAS): GDP-bound NRAS wild-type vs GDP-bound KRAS wild-type
[2] = molecular target: GDP-bound HRAS wild-type protein (Homo sapiens, UniProt P01112); test: Binding to HRAS by surface plasmon resonance (SPR), Single Cycle Kinetics; conditions: SPR; for HRAS/KRAS (ratio of KD value with respect to HRAS to KD value with respect to KRAS): GDP-bound HRAS wild-type vs GDP-bound KRAS wild-type
Sequence of GDP-bound HRAS wild-type protein (P01112 whole entry): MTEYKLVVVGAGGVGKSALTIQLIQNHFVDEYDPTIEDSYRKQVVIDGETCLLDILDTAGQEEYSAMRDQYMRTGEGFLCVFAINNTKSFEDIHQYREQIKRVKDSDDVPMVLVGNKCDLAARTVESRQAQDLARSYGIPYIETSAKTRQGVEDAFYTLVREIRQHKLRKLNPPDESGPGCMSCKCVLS

Sequence of GDP-bound NRAS wild-type protein (P01111 whole entry): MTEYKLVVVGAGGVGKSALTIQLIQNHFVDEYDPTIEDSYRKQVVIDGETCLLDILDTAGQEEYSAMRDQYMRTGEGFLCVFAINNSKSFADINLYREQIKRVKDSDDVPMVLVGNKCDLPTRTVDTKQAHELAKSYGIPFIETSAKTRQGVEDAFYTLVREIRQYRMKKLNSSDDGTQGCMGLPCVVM

CC[C@H](C)[C@@H]1NC(=O)[C@H](CC(C)C)N(C)C(=O)C[C@@H](C(=O)N2CCOCC2)N(C)C(=O)[C@H](C2CCCC2)N(C)C(=O)C2(CCCC2)NC(=O)[C@@H]2CCCN2C(=O)[C@H](CCc2ccc(C(F)(F)F)c(Cl)c2)NC(=O)CN(C)C(=O)[C@H](Cc2ccc(C(F)(F)F)cc2)N(CCC(F)(F)F)C(=O)[C@@H]2CCN2C(=O)[C@H](C)N(C)C1=O [PP0117] ([NMeL]I[NMeA][Aze][X24][Sar][hPhe(3-Cl-4-CF3)]P[Ac5c][NMeGly(cPent)][NMeD]-Morpholide; lactam N-11)
NRAS/KRAS (ratio of KD for GDP-bound NRAS wild-type to KD for KRAS) ([1]; KD ratio NRAS/KRAS): B (a compound having 3 or more and less than 10 is denoted as B)
HRAS/KRAS (ratio of KD for GDP-bound HRAS wild-type to KD for KRAS) ([2]; KD ratio HRAS/KRAS): B (a compound having 3 or more and less than 10 is denoted as B)

CCC[C@@H]1C[C@H]2C(=O)NC3(CCC3)C(=O)N(C)[C@@H](C3CCCC3)C(=O)N(C)[C@H](C(=O)N(C)C)CC(=O)N(C)[C@@H](CCC)C(=O)N[C@@H]([C@@H](C)CC)C(=O)N(C)CC(=O)N(C)[C@H]3C/C=C\CCN(C3=O)[C@@H](Cc3ccc(C)cc3)C(=O)N(C)CC(=O)N[C@@H](CCc3ccc(C(F)(F)F)c(Cl)c3)C(=O)N2C1 [PP2238]
NRAS/KRAS (ratio of KD value with respect to NRAS to KD value with respect to KRAS) [1]: A (a compound having 10 or more and less than 20 is denoted as A)
HRAS/KRAS (ratio of KD value with respect to HRAS to KD value with respect to KRAS) [2]: A (a compound having 10 or more and less than 20 is denoted as A)

CCO[C@@H]1C[C@H]2C(=O)NC3(CCC3)C(=O)N(C)[C@@H](C3CCCC3)C(=O)N(C)[C@H](C(=O)N3CCCCC3)CC(=O)N(C)[C@H]3CCCCCCc4ccc(cc4)C[C@@H](C(=O)N(C)CC(=O)N[C@@H](CCc4ccc(C(F)(F)F)c(OC)c4)C(=O)N2C1)N1CC/C=C\C[C@@H](C1=O)N(C)C(=O)CN(C)C(=O)[C@H]([C@@H](C)CC)NC3=O [PP3033, (1S,7S,11R,13S,19S,22S,26S,29S,35S,37Z)-19-cyclopentyl-11-ethoxy-7-[2-[3-methoxy-4-(trifluoromethyl)phenyl]ethyl]-3,18,21,25,31,34-hexamethyl-29-[(1S)-1-methylpropyl]-22-(piperidine-1-carbonyl)spiro[3,6,9,15,18,21,25,28,31,34,41-undecazapentacyclo[24.15.11.2^43,46.1^35,41.0^9,13]pentapentaconta-37,43(54),44,46(53)-tetraene-16,1′-cyclobutane]-2,5,8,14,17,20,24,27,30,33,55-undecone]
NRAS/KRAS (ratio of KD value with respect to GDP-bound NRAS wild-type protein to KD value with respect to KRAS) ([1]; KD ratio NRAS/KRAS, GDP-bound wild-type proteins): A (a compound having 10 or more and less than 20 is denoted as A)
HRAS/KRAS (ratio of KD value with respect to GDP-bound HRAS wild-type protein to KD value with respect to KRAS) ([2]; KD ratio HRAS/KRAS, GDP-bound wild-type proteins): B (a compound having 3 or more and less than 10 is denoted as B)

CCC[C@H]1C(=O)N[C@@H]([C@@H](C)CC)C(=O)N2CCC[C@H]2C(=O)N(C)[C@H]2C/C=C\CCN(C2=O)[C@@H](CC2CCCCC2)C(=O)N(C)CC(=O)N[C@@H](CCc2ccc(C(F)(F)F)c(OC)c2)C(=O)N2C[C@H](OCC)C[C@H]2C(=O)N(C)C2(CCC2)C(=O)N(C)[C@@H](C2CCCC2)C(=O)N(C)[C@H](C(=O)N(C)C)CC(=O)N1C [PP2344]
NRAS/KRAS (ratio of KD value with respect to NRAS to KD value with respect to KRAS) [1]: A (a compound having 10 or more and less than 20 is denoted as A)
HRAS/KRAS (ratio of KD value with respect to HRAS to KD value with respect to KRAS) [2]: A (a compound having 10 or more and less than 20 is denoted as A)

CCO[C@@H]1C[C@H]2C(=O)NC3(CCC3)C(=O)N(C)[C@@H](C3CCCC3)C(=O)N(C)[C@H](C(=O)N(C)C)CC(=O)N(C)[C@@H](CC)C(=O)N[C@@H]([C@@H](C)CC)C(=O)N(C)CC(=O)N(C)[C@H]3CCCCCN(C3=O)[C@@H](Cc3ccc(C(F)(F)F)cc3)C(=O)N(C)CC(=O)N[C@@H](CCc3cc(Cl)c(C(F)(F)F)c(Cl)c3)C(=O)N2C1 [PP0989]
NRAS/KRAS (ratio of KD value with respect to NRAS to KD value with respect to KRAS) ([1]; KD ratio): B (a compound having 3 or more and less than 10 is denoted as B)
HRAS/KRAS (ratio of KD value with respect to HRAS to KD value with respect to KRAS) ([2]; KD ratio): B (a compound having 3 or more and less than 10 is denoted as B)

CCO[C@@H]1C[C@H]2C(=O)NC3(CCC3)C(=O)N(C)[C@@H](C3CCCC3)C(=O)N(C)[C@H](C(=O)N(C)C)CC(=O)N(C)[C@@H](CC(C)(C)C)C(=O)N[C@@H]([C@@H](C)CC)C(=O)N(C)CC(=O)N(C)[C@H]3CCCCN(C3=O)[C@@H](Cc3ccc(C(F)(F)F)cc3)C(=O)N(C)CC(=O)N[C@@H](CCc3cc(F)c(C(F)(F)F)c(F)c3)C(=O)N2C1 [PP0699]
NRAS/KRAS (ratio of KD value with respect to GDP-bound NRAS wild-type protein to KD value with respect to KRAS) ([1]; KD ratio NRAS/KRAS): C (A compound having a KD ratio of 0.1 or more and less than 3 is denoted as C)
HRAS/KRAS (ratio of KD value with respect to GDP-bound HRAS wild-type protein to KD value with respect to KRAS) ([2]; KD ratio HRAS/KRAS): C (A compound having a KD ratio of 0.1 or more and less than 3 is denoted as C)
